Source: ChEMBL document CHEMBL1201862, “PubChem BioAssay data set” (2004)
The source made the active and inactive calls.

Tests used:
[1] = biological target: T1, Microphthalmia-associated transcription factor (Homo sapiens, UniProt O75030); test: reducers of TRPM1 reporter luminescence, concentration series – cell-based, SK-MEL-5, cherry-picked, set 3, MITF inhibitor project, dose response (AID 493073); format: functional;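 note: SK-MEL-5 melanoma cells with luciferase driven by the MITF target TRPM1 promoter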
T1 sequence (O75030 whole entry): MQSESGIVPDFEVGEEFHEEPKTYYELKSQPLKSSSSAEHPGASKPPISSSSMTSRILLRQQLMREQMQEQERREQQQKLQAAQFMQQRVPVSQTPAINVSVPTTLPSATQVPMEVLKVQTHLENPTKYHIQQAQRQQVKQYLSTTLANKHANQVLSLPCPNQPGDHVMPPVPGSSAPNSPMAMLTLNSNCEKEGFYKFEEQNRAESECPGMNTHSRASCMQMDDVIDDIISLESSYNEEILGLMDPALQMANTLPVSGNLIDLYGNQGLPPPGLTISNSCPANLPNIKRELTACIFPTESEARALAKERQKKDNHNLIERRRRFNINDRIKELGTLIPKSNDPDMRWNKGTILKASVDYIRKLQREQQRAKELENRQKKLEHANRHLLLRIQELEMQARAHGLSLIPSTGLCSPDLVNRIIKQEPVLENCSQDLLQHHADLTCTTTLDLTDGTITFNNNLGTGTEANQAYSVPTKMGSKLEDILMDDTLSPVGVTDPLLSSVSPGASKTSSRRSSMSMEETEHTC

cells [2] = format: functional, cell-based
cells [3] = format: functional, cell-based; remark: listed apart in the source
HEK293 [4] = test: cells; conditions: Homo sapiens
Protein RecA = biological target: T2, Protein RecA (Mycobacterium tuberculosis, UniProt P9WHJ3); test: Fluorescence Cell-Free Homogeneous Dose Retest to Identify Inhibitors of RecA-Intein Splicing Activity. [Related pubchem assays (depositor defined):AID2097, AID2223, AID489010, AID492950]; format: functional
T2 sequence (P9WHJ3 whole entry): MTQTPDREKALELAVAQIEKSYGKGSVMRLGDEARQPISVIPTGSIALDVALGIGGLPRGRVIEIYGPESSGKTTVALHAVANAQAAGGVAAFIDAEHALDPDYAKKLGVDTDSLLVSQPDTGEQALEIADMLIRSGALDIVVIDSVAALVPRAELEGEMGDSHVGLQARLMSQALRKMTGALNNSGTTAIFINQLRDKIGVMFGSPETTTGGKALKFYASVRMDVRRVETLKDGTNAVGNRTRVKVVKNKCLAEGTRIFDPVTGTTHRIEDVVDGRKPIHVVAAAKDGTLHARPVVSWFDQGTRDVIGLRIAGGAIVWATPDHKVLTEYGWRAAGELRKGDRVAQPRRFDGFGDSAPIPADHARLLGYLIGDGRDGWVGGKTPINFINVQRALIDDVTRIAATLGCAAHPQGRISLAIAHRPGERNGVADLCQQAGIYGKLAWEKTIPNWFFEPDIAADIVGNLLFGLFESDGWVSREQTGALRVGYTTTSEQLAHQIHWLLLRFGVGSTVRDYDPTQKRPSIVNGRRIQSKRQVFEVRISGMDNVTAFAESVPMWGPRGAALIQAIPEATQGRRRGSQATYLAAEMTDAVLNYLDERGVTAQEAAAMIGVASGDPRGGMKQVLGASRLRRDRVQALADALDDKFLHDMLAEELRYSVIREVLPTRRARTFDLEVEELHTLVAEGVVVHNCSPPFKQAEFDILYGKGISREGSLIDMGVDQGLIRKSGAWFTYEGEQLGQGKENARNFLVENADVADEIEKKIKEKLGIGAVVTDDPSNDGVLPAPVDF

[5] = biological target: T3, Replicative DNA helicase DnaB (Mycobacterium tuberculosis, UniProt P9WMR3); test: DnaB intein splicing inhibitors, dose response, biochemical, cell-free fluorescence (AID 449749); format: functional
T3 sequence (P9WMR3 whole entry): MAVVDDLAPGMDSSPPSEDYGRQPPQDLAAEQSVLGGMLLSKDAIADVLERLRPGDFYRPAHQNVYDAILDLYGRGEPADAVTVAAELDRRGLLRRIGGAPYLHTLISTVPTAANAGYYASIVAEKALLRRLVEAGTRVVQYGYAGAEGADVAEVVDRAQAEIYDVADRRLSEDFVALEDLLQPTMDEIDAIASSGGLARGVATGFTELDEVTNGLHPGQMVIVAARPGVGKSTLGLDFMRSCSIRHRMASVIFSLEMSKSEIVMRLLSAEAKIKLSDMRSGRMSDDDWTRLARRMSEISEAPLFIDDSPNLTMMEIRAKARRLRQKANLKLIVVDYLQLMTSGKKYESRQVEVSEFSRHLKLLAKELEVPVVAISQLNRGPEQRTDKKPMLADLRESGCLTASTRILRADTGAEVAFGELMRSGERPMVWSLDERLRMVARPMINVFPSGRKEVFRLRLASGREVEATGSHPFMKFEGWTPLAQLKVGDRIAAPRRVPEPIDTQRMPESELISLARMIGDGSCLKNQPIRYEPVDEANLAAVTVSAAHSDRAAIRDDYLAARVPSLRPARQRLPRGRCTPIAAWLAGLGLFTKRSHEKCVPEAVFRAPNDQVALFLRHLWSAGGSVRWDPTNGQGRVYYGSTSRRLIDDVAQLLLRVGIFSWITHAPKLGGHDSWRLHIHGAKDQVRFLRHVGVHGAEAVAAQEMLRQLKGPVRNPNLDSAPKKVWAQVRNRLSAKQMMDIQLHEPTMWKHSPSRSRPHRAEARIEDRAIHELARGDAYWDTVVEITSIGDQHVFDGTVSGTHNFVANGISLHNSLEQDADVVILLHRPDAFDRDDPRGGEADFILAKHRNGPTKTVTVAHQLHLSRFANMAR

Hexokinase HKDC1 = biological target: T4, Hexokinase HKDC1 (Homo sapiens, UniProt Q2TB90); test: inhibition of HKDC1 glucose phosphorylation – biochemical, W721R variant, dose response (AID 504729); format: functional
T4 sequence (Q2TB90 whole entry): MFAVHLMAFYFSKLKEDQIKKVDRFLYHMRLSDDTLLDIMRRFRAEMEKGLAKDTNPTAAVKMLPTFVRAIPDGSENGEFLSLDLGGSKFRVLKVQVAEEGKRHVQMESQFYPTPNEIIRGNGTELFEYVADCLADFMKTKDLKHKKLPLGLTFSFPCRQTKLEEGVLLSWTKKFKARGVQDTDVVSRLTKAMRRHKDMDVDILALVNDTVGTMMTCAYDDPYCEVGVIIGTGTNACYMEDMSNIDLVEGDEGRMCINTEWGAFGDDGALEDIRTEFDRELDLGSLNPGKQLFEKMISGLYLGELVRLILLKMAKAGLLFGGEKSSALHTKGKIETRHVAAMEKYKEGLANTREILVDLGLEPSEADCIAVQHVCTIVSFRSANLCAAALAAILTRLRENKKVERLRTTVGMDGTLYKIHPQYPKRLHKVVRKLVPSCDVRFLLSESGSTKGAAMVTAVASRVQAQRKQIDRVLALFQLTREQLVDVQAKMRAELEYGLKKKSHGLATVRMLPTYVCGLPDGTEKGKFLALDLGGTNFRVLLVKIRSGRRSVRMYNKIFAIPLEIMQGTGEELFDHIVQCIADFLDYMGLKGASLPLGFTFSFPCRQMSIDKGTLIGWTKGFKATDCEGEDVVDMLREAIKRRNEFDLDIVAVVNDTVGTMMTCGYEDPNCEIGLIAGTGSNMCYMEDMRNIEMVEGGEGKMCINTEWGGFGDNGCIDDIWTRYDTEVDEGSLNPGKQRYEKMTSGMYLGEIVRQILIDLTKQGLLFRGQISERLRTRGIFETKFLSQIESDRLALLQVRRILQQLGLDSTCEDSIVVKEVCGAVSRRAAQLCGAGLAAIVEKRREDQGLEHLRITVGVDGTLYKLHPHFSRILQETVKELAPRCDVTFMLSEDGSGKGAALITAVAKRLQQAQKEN

HEK293 [6] = test: cells; conditions: Homo sapiens; remark: listed apart in the source
[7] = biological target: Lysine-specific demethylase 4C (Homo sapiens, UniProt Q9H3R0); test: inhibition of JMJD2C H3K9me3 demethylation – biochemical, DELFIA europium, cherry-picked samples, dose response (AID 488835); format: functional
[8] = HEK-293T viability loss, compound-treated – cell-based, uHTS hits, cytotoxicity control for B/T-cell NF-kB inhibitor project, dose response (AID 489019); format: functional;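 note: IC50 reflects cytotoxicity as loss of cell viability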
Jurkat = test: blockers of NF-kB activation in T cells – Jurkat, luciferase reporter, luminescence, B- and T-cell, dose response (AID 489004); format: functional, cell-based; conditions: Homo sapiens;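 note: NF-kB luciferase reporter Jurkat cells stimulated with PMA plus ionomycin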
[9] = Counterscreen for activators of the function of SWI/SNF related, matrix associated, actin dependent regulator of chromatin, subfamily a, member 2 (SMARCA2, BRM): Luminescence-based cell-based high throughput dose response assay to identify non-selective compounds using the VP16 reporter assay.; format: functional
[10] = biological target: SWI/SNF-related matrix-associated actin-dependent regulator of chromatin subfamily A member 2 (Homo sapiens, UniProt P51531); test: Luminescence-based cell-based high throughput dose response assay to identify activators of the function of SWI/SNF related, matrix associated, actin dependent regulator of chromatin, subfamily a, member 2 (SMARCA2, BRM).; format: functional
SUMO-activating enzyme [11] = biological target: T5, SUMO-activating enzyme (Homo sapiens, UniProt Q9UBT2); test: blockers of SAE1/SAE2–UBC9 SUMO transfer – biochemical, HTRF, uHTS, primary screen (AID 2006); format: protein-complex assay
SUMO-activating enzyme [12] = biological target: T5, SUMO-activating enzyme; test: blockers of UBC9-mediated SUMO conjugation – biochemical, AlphaScreen, SUMOylation inhibitor project, confirmation (AID 2018); format: functional
SUMO E1/E2 = SUMO E1/E2 (Homo sapiens, UniProt P63279+Q9UBE0+Q9UBT2); test: SAR analysis of SUMOylation using HTRF in an in-Vitro dose response assay. [Related pubchem assays (depositor defined):AID2006, AID2011, AID2018, AID2069, AID2658]; format: functional
[13] = biological target: T6, Carboxy-terminal domain RNA polymerase II polypeptide A small phosphatase 1 (Homo sapiens, UniProt Q9GZU7); test: CTDSP1 inhibitors, concentration-response, biochemical, absorbance readout, ultra-high-throughput screen actives (AID 540297); format: functional
T6 sequence (Q9GZU7 whole entry): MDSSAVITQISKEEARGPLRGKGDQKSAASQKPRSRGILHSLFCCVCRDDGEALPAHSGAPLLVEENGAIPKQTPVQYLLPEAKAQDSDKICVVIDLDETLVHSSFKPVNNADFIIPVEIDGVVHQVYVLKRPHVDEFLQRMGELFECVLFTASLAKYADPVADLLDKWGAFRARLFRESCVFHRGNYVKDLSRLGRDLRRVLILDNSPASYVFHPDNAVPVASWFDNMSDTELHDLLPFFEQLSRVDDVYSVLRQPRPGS

T5 sequence (Q9UBE0 whole entry): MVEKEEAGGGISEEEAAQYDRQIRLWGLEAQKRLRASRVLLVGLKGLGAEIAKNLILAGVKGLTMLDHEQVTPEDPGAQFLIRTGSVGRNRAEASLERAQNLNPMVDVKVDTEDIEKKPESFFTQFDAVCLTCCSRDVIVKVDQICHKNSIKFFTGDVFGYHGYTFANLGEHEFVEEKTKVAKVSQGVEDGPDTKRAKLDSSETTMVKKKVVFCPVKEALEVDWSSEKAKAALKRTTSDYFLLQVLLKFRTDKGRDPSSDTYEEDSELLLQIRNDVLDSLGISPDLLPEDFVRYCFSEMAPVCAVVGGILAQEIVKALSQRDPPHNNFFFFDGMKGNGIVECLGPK
T5 sequence (Q9UBT2 whole entry): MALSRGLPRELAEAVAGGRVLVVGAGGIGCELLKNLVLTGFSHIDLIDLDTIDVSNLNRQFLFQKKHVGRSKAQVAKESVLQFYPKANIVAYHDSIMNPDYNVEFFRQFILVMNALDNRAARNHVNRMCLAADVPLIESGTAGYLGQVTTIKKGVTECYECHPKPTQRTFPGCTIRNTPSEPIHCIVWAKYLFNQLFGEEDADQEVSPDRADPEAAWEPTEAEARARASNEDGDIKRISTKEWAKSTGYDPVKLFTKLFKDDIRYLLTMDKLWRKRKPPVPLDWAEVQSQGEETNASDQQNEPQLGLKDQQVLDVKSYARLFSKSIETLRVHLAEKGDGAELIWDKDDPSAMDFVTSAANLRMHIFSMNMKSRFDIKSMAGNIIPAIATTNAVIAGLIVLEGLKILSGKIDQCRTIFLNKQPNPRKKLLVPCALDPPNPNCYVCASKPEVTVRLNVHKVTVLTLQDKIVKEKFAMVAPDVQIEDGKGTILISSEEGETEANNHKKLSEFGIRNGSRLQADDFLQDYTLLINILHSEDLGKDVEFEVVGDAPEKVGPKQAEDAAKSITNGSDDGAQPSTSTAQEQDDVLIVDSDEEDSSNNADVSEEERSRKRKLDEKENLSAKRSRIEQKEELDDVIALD
SUMO E1/E2, sequence (Q9UBE0 whole entry, the tested form may be a part): as the sequence (Q9UBE0 whole entry) above
SUMO E1/E2, sequence (Q9UBT2 whole entry, the tested form may be a part): as the sequence (Q9UBT2 whole entry) above
SUMO E1/E2, sequence (P63279 whole entry, the tested form may be a part): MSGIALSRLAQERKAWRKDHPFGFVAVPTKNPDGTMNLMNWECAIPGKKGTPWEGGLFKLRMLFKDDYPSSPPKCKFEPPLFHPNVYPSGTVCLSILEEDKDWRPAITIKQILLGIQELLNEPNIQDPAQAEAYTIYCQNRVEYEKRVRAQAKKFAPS
SWI/SNF-related matrix-associated actin-dependent regulator of chromatin subfamily A member 2, sequence (P51531 whole entry): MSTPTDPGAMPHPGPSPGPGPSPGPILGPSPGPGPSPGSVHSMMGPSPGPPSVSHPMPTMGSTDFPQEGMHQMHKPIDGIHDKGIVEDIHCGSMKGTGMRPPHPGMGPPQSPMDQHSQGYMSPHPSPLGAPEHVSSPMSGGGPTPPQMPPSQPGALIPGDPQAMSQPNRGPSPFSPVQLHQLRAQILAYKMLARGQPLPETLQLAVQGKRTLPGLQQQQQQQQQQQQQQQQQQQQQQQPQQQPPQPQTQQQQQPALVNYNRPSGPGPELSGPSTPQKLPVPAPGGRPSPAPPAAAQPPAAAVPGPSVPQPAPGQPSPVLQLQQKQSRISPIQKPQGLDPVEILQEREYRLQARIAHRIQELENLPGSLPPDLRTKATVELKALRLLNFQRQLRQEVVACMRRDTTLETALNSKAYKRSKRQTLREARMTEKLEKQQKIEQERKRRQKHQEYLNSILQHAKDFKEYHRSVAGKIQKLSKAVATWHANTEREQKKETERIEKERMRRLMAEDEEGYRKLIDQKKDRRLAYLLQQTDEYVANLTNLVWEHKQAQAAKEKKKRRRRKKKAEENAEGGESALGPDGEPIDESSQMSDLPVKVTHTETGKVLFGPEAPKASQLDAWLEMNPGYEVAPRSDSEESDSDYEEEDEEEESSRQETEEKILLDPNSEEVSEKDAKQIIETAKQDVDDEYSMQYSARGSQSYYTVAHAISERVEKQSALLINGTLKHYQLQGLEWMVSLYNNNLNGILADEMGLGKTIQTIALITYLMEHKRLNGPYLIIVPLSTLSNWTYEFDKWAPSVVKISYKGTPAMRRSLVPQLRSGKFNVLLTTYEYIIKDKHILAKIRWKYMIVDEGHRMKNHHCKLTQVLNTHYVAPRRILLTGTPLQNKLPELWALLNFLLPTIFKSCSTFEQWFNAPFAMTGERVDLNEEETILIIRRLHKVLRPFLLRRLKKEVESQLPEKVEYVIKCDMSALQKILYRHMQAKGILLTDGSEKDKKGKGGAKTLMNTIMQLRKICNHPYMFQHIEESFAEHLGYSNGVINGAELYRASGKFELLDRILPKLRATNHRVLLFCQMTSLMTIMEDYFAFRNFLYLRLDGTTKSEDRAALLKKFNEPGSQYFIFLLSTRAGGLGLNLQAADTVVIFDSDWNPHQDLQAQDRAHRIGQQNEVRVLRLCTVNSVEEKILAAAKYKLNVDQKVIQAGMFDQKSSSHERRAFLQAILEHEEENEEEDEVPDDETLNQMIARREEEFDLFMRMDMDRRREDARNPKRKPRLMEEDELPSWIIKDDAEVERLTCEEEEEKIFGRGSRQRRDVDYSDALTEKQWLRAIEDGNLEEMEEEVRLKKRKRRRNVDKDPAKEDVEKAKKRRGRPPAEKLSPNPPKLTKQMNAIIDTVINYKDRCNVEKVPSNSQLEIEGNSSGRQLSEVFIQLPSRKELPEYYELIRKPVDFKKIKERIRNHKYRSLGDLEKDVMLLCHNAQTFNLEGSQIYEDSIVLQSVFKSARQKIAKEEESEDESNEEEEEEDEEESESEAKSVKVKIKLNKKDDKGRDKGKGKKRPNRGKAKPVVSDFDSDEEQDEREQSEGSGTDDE
Lysine-specific demethylase 4C, sequence (Q9H3R0 whole entry): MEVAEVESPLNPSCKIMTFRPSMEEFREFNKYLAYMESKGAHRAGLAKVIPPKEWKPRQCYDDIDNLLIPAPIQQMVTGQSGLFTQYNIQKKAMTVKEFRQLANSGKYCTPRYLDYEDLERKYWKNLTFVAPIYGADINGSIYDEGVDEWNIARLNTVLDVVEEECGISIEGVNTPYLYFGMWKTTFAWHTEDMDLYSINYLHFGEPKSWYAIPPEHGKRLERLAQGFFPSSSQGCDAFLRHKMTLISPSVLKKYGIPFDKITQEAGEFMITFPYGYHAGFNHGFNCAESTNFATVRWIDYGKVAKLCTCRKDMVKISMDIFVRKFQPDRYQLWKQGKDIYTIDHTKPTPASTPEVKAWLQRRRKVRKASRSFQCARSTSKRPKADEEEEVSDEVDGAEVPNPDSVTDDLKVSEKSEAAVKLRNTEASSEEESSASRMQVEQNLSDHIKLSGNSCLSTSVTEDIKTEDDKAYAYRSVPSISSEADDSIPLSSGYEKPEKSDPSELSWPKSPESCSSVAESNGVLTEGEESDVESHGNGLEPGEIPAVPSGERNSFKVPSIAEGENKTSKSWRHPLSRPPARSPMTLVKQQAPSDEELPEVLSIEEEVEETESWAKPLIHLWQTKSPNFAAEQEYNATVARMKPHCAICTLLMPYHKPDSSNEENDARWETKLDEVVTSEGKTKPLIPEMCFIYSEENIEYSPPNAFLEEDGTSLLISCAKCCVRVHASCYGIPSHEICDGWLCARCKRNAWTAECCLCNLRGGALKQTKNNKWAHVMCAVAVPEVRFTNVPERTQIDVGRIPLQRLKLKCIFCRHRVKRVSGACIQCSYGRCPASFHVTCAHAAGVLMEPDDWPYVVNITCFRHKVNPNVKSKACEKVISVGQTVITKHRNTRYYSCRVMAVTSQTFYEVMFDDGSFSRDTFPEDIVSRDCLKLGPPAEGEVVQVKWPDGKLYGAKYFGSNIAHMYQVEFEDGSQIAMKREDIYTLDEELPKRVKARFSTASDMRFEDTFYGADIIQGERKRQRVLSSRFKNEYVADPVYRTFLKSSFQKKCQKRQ

Compound: COc1ccc(-n2c(C)cc(C(=O)CCl)c2C)cc1
- AC50 [1]: 6.44 µM (active)
- EC50 (cells [2]): > 350 µM (not active)
- EC50 (cells [3]): > 350 µM (not active)
- EC50 (HEK293 [4]): > 59.7 µM (inactive)
- EC50 (Protein RecA): 19 µM (active)
- AC50 [5]: 22.9 µM (active)
- IC50 (Hexokinase HKDC1): 27 µM (inactive)
- EC50 (HEK293 [6]): > 59.7 µM (inactive)

Compound: O=C1NC(=O)C(C(CC(=O)c2ccccc2)c2ccccc2)C(=O)N1 (centres undefined)
- AC50 [7]: 7.62 µM (active)

Compound: CC(C)Cc1cc(C(C)(C)C)ccc1OC(=S)N(C)C
- IC50 [8]: > 80 µM (inactive)
- IC50 (Jurkat): > 80 µM (inactive)

Compound: O=C1C2C3C=CC(C4CC34)C2C(=O)N1/N=C/c1ccc([N+](=O)[O-])o1 (centres undefined)
- EC50 (HEK293 [4]): > 59.6 µM (inactive)
- EC50 [9]: > 91.1 µM (inactive)
- EC50 [10]: > 91.1 µM (inactive)
- EC50 (HEK293 [6]): > 59.6 µM (inactive)

Compound: O=C(N=Nc1c(O)[nH]c2ccc([N+](=O)[O-])cc12)c1ccccc1Cl
- IC50 (SUMO-activating enzyme [11]): 20.4 µM (active)
- IC50 (SUMO-activating enzyme [12]): 7.02 µM (active)
- IC50 (SUMO E1/E2): 94.4 µM (active)
- IC50 [13]: 6.44 µM (active)
